# Assay results: article PMC9050674, “Structure-based inhibitor design for reshaping bacterial morphology” (Communications Biology, 2022)
# Several values for one entry are separate records, joined by “and”; a condition that tells them apart may be missing. Equal values may be shown once.
# Tests used:
# [1] = system: Caco-2 epithelial cells; test: Cytotoxicity assay (LDH release); format: cell-based; conditions: 3 h; for Cytotoxicity test (LDH release, Triton X-100 lysis = 100%): single replicates, source data Fig. 5c
# Description: To examine the cytotoxicity of BMK-[…], the lactate dehydrogenase (LDH) activity was measured using Cytotoxicity Detection Kit^PLUS (LDH; Roche, Switzerland) according to the manufacturer's instructions. Briefly, the monolayers of Caco-2 cells were prepared in a 96 well tissue culture plate and incubated in Dulbecco's modified-eagle medium (DMEM; ATCC) with 10% fetal bovine serum (FBS; Invitrogen), and 0.6% carboxymethylcellulose (CMC) at 37 °C under 5% CO2. […] The 2% Triton X-100 was used to release all LDH of Caco-2 cell as a positive control.
# [2] = system: C. jejuni ATCC 33560 WT; test: Cell morphology change monitored by TEM; format: cell-based, Campylobacter jejuni; conditions: 37 °C, 24 h, KL-L9P used for improved permeability
# Text: Next, we investigated whether our inhibitors could transform C. jejuni from the helical- to curved-rod morphology on exposure to the inhibitors (Fig. 5). […] To investigate the effect of inhibitors on the morphology of C. jejuni cells, we exposed the cells to the inhibitors and checked whether the morphology could be altered.
# Cell-morphology change of C. jejuni upon inhibitor treatment was monitored, as described previously with modifications. Briefly, overnight cultures of C. jejuni were harvested from MH agar plates and suspended in MH broth to approximately 1 × 10^6 colony-forming unit (CFU)/mL. A total of 500 μL of the diluted bacterial culture was added into each well of a 24-well plate with 5 μL of two-fold serial dilutions of inhibitor. For the control strain with no inhibitor, the same volume of dilution buffer (20 mM Tris-HCl pH 8.0 and 200 mM NaCl) was used. The plate was incubated under a micro-aerobic condition at 37 °C for 24 h in the static condition. After incubation, 10 μL of the bacterial cultures was placed on formvar/carbon-coated copper grids (200 mesh) and negatively stained with 2% uranyl acetate for 2 s.
# [3] = system: C. jejuni (ATCC 33560); test: Drug accumulation assay (LC-MS)
# Description: The accumulation assay was adapted from two different methods[42],[43]. […] The culture was grown overnight at 42 °C under the micro-aerobic condition. The cells were harvested at 6000 g for 15 min and washed with 1 × PBS, followed by resuspension in pre-warmed 1 × PBS to ~10^10 CFU/mL. The cell suspension (1.2 mL) was dispensed into a 24-well plate. Each compound to be examined was added into each well (final concentration = 100 μM). […] After incubation with shaking at 37 °C for 20 min, OD600 of each sample was measured, and the cells were harvested at 6000 g for 10 min at 4 °C. The pellets were resuspended in 250 μL of water, followed by three cycles of Freeze-Thaw with a dry ice/ethanol bath and a 37 °C-heating block in order to extract the compounds from C. jejuni. The cells were pelleted at 13,000 g for 5 min at room temperature. The supernatants (220 μL) were transferred to new tubes. The pellets were resuspended in 100 μL of methanol with vigorous vortexing for 1 min, followed by pelleting as before. The supernatants (100 μL) were combined with the solutions previously collected. The residual cell debris were removed at 20,000 g for 15 min at room temperature. The supernatants (300 μL) were dried with Genevac™ miVac Centrifugal Concentrator at room temperature for 5 h. Finally, the samples were resuspended with appropriate solvents and analyzed by LC-MS.
# The suspension was centrifuged and the supernatant was analyzed by LC-MS. LC-MS systems consists of a Bruker impact II ultra-high resolution Qq-time-of-flight mass spectrometer using Hystar 5.0 SR1 software with a Waters Acquity UPLC H-Class system equipped with a quaternary solvent manager, a sample manager-FTN, and a photodiode array detector. The Bruker electrospray ionization source was operated in the positive ion mode, except for BMK-S301 (in the negative ion mode). […] A four-step 10-min LC gradient was as follows: 3 min at 98:2; 3 min to 85:15; 0.1 min to 98:2; 3.9 min at 98:2 for BMK-S101, -S203, and -S301. The ratio of the mobile phases (A = 0.1% formic acid in water, B = 0.1% formic acid in ACN) is given as A:B in LC gradients. […] The quantification was done by integrating the peak areas from extracted-ion chromatograms of corresponding m/z values of each compound.
# [4] = molecular target: Pgp3 (Campylobacter jejuni, UniProt Q0P921); test: biochemical; design: species or system C. jejuni
# Description: Because DABCYL/FITC is a typical FRET quencher–fluorophore pair, an increase in fluorescent signals can be directly detected when it is processed by Pgp3 (Tang et al., 2013). The kinetic parameters (kcat = 0.0209 ± 0.0006 s^−1 and KM = 6.6 ± 0.7 µM) for the substrate were obtained by fitting the data to the Michaelis-Menten equation (Supplementary Fig. 8a).
# The enzymatic assay for Pgp3 activity was determined using a fluorescein isothiocyanate (FITC) and 4′-([4′-(Dimethylamino)phenyl]-azo)-benzoic acid (DABCYL) pair for FRET. […] The excitation and emission spectra were set at 495 nm and 525 nm, respectively. Pgp3 (0.1 μM) in 20 mM HEPES pH 7.5, 200 mM NaCl, and 0.4 μM of zinc was used in this assay. The reaction was initiated by adding 3 μL of 0.015–2 mM substrate (final 1.56–200 μM) in the total volume of 30 μL of the reaction mixture. Initial velocities were calculated using slopes of fluorescence signal intensity in 3 min after the initiation of the reaction. In order to elucidate the inhibition mechanism of BMK-S301, initial velocities with various concentrations of substrates were measured in the presence of 40 μM BMK-S301. […] The same method was used for the determination of the IC50 values for inhibitors. Inhibitors in each concentration were pre-incubated with 0.1 μM of Pgp3 for 1 h on ice, and initial velocities were determined for 0.1, 10, 50, 100, 200, 500, and 1000 μM of each inhibitor in reaction with 10 μM of substrate. The IC50 values were calculated using GraphPad Prism 7.
# Chain of Pgp3 (Q0P921 entry or part of it): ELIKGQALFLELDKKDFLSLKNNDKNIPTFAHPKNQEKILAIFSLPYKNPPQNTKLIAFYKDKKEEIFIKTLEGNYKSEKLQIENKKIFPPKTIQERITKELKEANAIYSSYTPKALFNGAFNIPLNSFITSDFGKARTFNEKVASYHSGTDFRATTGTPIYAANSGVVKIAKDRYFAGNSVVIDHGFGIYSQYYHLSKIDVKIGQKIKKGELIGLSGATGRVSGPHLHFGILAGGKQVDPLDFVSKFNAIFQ
smiles,measurement,setting,value
CC(=O)N[C@@H](Cc1ccc(S(N)(=O)=O)cc1)C(=O)N[C@H](C)C(=O)NO [BMK-S301],"Cytotoxicity test (LDH release, Triton X-100 lysis = 100%)",[1]; 10 μM,0% (5×) and 4.598%
same,"Cytotoxicity test (LDH release, Triton X-100 lysis = 100%)",[1]; 100 μM,2.466% and 0% (5×)
same,toxicity to Caco-2 cells,"[1]; LDH release, 10 or 100 μM",not toxic
same,minimum concentration causing morphological changes (helical to curved-rod),[2],25 μM
same,accumulation fold higher than for BMK-S203,[3]; 100 μM compound,54 fold
same,accumulation fold higher than for ciprofloxacin,[3]; 100 μM compound,8 fold
same,intracellular concentration (accumulation),"[3]; 100 μM compound, 37 °C, 20 min, LC-MS, mean",16.2 ± 1.0 nmole/10^11 CFU
same,µM (concentration in LC-MS sample),"[3]; single replicates (First, Second, Third), total volume 200 (r6-r19) or 100 (r23-r30), source data Fig. 5b",0.766 µM and 0.686 µM and 1.447 µM and 1.359 µM and 1.398 µM and 0.649 µM
same,nmol/1011 CFUs,"[3]; single replicates, source data Fig. 5b",17.92 nmol/1011 CFUs and 16.41 nmol/1011 CFUs and 16.422 nmol/1011 CFUs and 15.620 nmol/1011 CFUs and 15.458 nmol/1011 CFUs and 15.07 nmol/1011 CFUs
same,Total nmol,"[3]; single replicates, total volume 200 or 100, source data Fig. 5b",0.1532 nmol and 0.1372 nmol and 0.1447 nmol and 0.1359 nmol and 0.1398 nmol and 0.1298 nmol
same,IC50,[4],22 ± 1.4 µM
